The values below come from patent US7390870B2, “Immune-enhancing peptides” (Posco, priority 2001, dated 2008).

No end group written: not given here.

The subject of one assay is monocytes. As to the kind of experiment: Receptor specificity: monocyte chemotaxis after preincubation with a peptide. It is filed as cell-based, human. The conditions noted are these: FIG. 9, preincubation 10 μM peptide 10 minutes. The method, then:
(§1) Chemotaxis assays of the peptide were performed using multiwell chambers (Neuroprobe Inc., Gaithersburg, Md.) (20). Briefly, the prepared isolated human monocytes were suspended in RPMI at a concentration of 1×10^6 cells/ml of serum-free RPMI, and 25 □ of the suspension were placed onto the upper well of a 96-well chemotaxis chamber that was separated by a […] filter with a 5 □ pore size (3 □ diameter pores not coated with polyvinylpyrrolidone for neutrophils) from peptides or an fMLF-containing lower well. After incubation for 2 hours (90 minutes for neutrophils) at 37° C., non-migrated cells were removed by scraping them out, and cells that migrated across the filter were dehydrated, fixed, and stained with hematoxylin (Sigma, St. Louis, Mo.). The stained cells in five randomly chosen high power fields (HPF) (400×) in that well were then counted (21). The numbers of migrated cells were determined by counting them in a high power field (400×). For a checkboard analysis, cells were re-suspended in RPMI containing various concentrations of the peptide just before transferring them to the upper wells as described before (22).
The three peptides, HFYLPM, MFYLPM, and HFYLPm which have similar sequences, exerted similar effects on human leukocytes in that they stimulated superoxide generation and chemotactic migration involving PTX-sensitive G-protein(s). So an attempt to reveal whether the three peptides acted through the same or different receptor(s) was carried out. For this purpose, monocytes were preincubated with 10 μM of each peptide, HFYLPM, MFYLPM, or HFYLPm for 10 minutes at 37° C., or they remained untreated. After washing twice, the cells were used for chemotaxis assay. The cells were allowed to migrate towards the maximal effective concentrations of each peptide (1 μM HFYLPM, 1 μM MFYLPM, or 10 nM HFYLPm) or medium. After fixing and staining of the membrane, migrated cells were quantified microscopically. […]

The subject of another assay is human neutrophil. As to the kind of experiment: Chemotaxis assay, human neutrophils (multiwell chamber). Type of assay: cell-based. To be noted: similar concentrations as for monocyte migration. The protocol:
as §1

Assay [1] concerns human monocytes. As to the kind of experiment: Superoxide generation in human monocytes (cytochrome c reduction assay). Type of assay: cell-based. Details: activity in terms of superoxide generation among the identified peptides: dose or concentration left out as unconfirmed. The protocol:
For initial screening of the PS-SPCLs, the superoxide anion generation of each peptide pool was evaluated by measuring reduction of cytochrome c using a microtiter 96 well plate ELISA reader (Bio-Tekinstruments, EL312e, Winooski, Vt.) as described (20). The cytochrome c was purchased from Sigma (St. Louis, Mo.). The human monocytes (9×10^5 cells/100 □ of RPMI 1640 medium per well of a 96-well plate) were preincubated with 50 μM cytochrome c at 37° C. for 1 minute and then incubated with the indicated concentrations of peptide pools (final 0.5 nM per peptide sequence for the initial screening). The superoxide generation was measured as change in light absorption at 550 nm over 5 minutes at 1 minute intervals. From at least four independent experiments, peptides with active amino acids at each position were chosen. Superoxide generation by the identified peptides was measured by the same method. Spurious reduction of cytochrome c was ruled out by checking that the peptides-induced ones were superoxide dismutase-inhibitable in all experiments.
Based on the results of the initial screening of the peptide libraries of Example 4, a peptide pool containing twelve (2×1×1×1×2×3=12) individual hexapeptides were generated by reiterative synthesis. […]
The superoxide generated was measured using a cytochrome c reduction assay as described above. […]

In assay [2] the test system is human monocytes. In words: Checkboard analysis of monocyte migration across polycarbonate membrane. The conditions noted are these: 2 hr. Type of assay: cell-based. The method, then: as §1
To distinguish whether the peptide-induced monocyte migration is chemotaxis or chemokinesis, a checkboard analysis was performed as described above (22, 26).

On to “Met-Phe-Tyr-Leu-Pro-Met-CONH2 (MFYLPM-NH2)”, for which the entries for the “inhibition of HFYLPm-induced cell migration by preincubation with peptide” value with monocytes (migration towards 10 nM HFYLPm) and with monocytes (migration towards 1 μM HFYLPM) were “no inhibition” and “partial inhibition”, respectively. Besides, the “inhibition of MFYLPM-induced cell migration by preincubation with peptide” value in the assay with monocytes (migration towards 1 μM MFYLPM) is on record as “complete inhibition”. Besides, the “cellular migration in human neutrophil” value in the assay with human neutrophil is “induced cellular migration”. For the same substance, in the assay with human monocytes [1] (FIG. 2A, monocytes stimulated), the “activity in terms of superoxide generation among the identified peptides” value is reported as “most active”. The “concentration of maximal activity, superoxide generation” value in the assay on human monocytes [1] (FIG. 2B, concentration dependency) was found to be 3.3 µM. Besides, the “migrated monocytes in 5 HPF” value with human monocytes [2] (peptide below 0 nM, above 10 nM) was determined as 11.3 ± 2.42; in the assay with human monocytes [2] (peptide below 0 nM, above 100 nM), 15.0 ± 3.50; with human monocytes [2] (peptide below 0 nM, above 1000 nM), 11.0 ± 2.67; with human monocytes [2] (peptide below 10 nM, above 0 nM) it was 198 ± 32.3; with human monocytes [2] (peptide below 10 nM, above 10 nM), 33.7 ± 8.93; with human monocytes [2] (peptide below 10 nM, above 100 nM), 16.0 ± 3.16. Further, the “migrated monocytes in 5 HPF” value with human monocytes [2] (peptide below 10 nM, above 1000 nM) was found to be 12.3 ± 3.43; in the assay with human monocytes [2] (peptide below 100 nM, above 0 nM) it was 557 ± 29.5; in the assay with human monocytes [2] (peptide below 100 nM, above 10 nM), 425 ± 48.3; in the assay on human monocytes [2] (peptide below 100 nM, above 100 nM), 66.3 ± 14.9; in the assay on human monocytes [2] (peptide below 100 nM, above 1000 nM), 18.0 ± 4.05; in the assay on human monocytes [2] (peptide below 1000 nM, above 0 nM), 484 ± 43.6. The “migrated monocytes in 5 HPF” value with human monocytes [2] (peptide below 1000 nM, above 10 nM) was found to be 395 ± 38.5; in the assay with human monocytes [2] (peptide below 1000 nM, above 100 nM), 198 ± 26.7; in the assay with human monocytes [2] (peptide below 1000 nM, above 1000 nM) it was 76.7 ± 18.9.
